Measurements as given in US8450308B2 (Vitae Pharmaceuticals, Inc., priority 2008, dated 2013).
Where two headings read alike, the source gives them in different places.

Biological target: T1, truncated human beta-secretase (residues 1-458, His6-tagged at the C-terminus) (Homo sapiens, UniProt P56817)
T1 construct: truncated human beta-secretase (residues 1-458, His6-tagged at the C-terminus); His6 (C); made in house; host or cells: insect cells D. melanogaster S2 (baculovirus expression system (so in the source))
T1 sequence (P56817 22-458): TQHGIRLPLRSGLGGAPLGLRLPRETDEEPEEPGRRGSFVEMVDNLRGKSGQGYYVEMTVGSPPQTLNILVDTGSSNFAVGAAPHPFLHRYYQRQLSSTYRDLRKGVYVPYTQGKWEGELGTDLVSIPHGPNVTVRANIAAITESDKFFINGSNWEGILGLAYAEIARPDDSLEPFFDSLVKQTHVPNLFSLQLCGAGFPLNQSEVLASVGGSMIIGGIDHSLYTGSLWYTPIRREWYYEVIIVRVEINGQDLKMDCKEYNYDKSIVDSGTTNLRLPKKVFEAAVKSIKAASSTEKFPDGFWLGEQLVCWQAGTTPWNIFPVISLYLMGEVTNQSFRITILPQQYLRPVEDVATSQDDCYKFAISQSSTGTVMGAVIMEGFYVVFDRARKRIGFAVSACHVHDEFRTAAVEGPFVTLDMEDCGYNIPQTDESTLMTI
Experiment: BACE fluorescence quench assay
Assay type: biochemical
Procedure: The assay was performed at room temperature in 96-well white opaque Optiplates aque Optiplates (PerkinElmer, Waltham, Mass.) in a total volume of 200 μl of the incubation mixture containing 50 mM sodium acetate buffer, pH 4.5, 0.4 μM FRET substrate, 2.4 nM enzyme, 5% DMSO, and 0.05% Brij-35. The tested compounds were serially diluted in DMSO and pre-incubated with the substrate. The reaction was started by addition of enzyme, and the progress of the reaction was followed by measuring fluorescence with an excitation wavelength of 480 nm and an emission wavelength of 520 nm. Ten measurements were taken every 5-10 min, and the intensity of fluorescence was regressed against time in order to derive velocities of reaction in all 96 wells. […] IC50 values were calculated by fitting percent inhibition vs. inhibitor concentration into a four-parametric logistic model using XLFit software (IDBS, Guildford, UK).

[1] = in vitro enzyme activity, BACE fluorescence assay, pH 4.5, read-out: IC50

Structure (SMILES)	IC50 [1] [nM]	IC50 [nM]
CN1C(=O)[C@@]2(C[C@H](c3ccccc3)Oc3ccc(Br)cc32)N=C1N (racemic) [Compound 44a, Trans-2′-amino-6-bromo-1′-methyl-2-phenylspiro[chroman-4,4′-imidazol]-5′(1′H)-one]		5000 to 10000
CN1C(=O)C2(CC(c3ccccc3)Oc3ccc(-c4cccc(CC#N)c4)cc32)N=C1N (stereo not shown) [Compound 29, 2-(3-(2′-amino-1′-methyl-5′-oxo-2-phenyl-1′,5′-dihydrospiro[chroman-4,4′-imidazole]-6-yl)phenyl)acetonitrile]		1000 to 5000
CN1OC2(CC3(CCCOC3)Oc3ccc(C#Cc4ccccc4)cc32)N=C1N (stereo not shown) [Compound 454, 2″-methyl-6-(phenylethynyl)-2″H-spiro[spiro[chroman-2,1′-(3-oxacyclohexane)]-4,5′-[1,2,4]oxadiazol]-3″-amine]	10000 to 50000	
CN1C(=O)C2(CC3(CCCOC3)Oc3ccc(-c4cccc(C#N)c4F)cc32)N=C1N (stereo not shown) [Compound 291]	100 to 500	
CN1C(=O)[C@@]2(C[C@@]3(CCCOC3)Oc3ccc(-c4ccco4)cc32)N=C1N [Compound 448]	10000 to 50000	
CN1C(=O)C2(C[C@]3(CCCOC3)Oc3ccc(-c4cccc(Br)c4)cc32)N=C1N (stereo partly shown) [Compound 318]	100 to 500	
CN1OC2(C[C@H](C3CCCOC3)Oc3ccc(-c4cccnc4F)cc32)N=C1N (stereo partly shown) [Compound 89b]	1000 to 5000	
COc1ccc(OC)c(-c2ccc3c(c2)[C@]2(C[C@]4(CCCOC4)O3)N=C(N)N(C)C2=O)c1 [Compound 307]	100 to 500	
CC1CCC2(C1)CC1(N=C(N)N(C)O1)c1cc(-c3cccc(C#N)c3)ccc1O2 (stereo not shown) [Compound 125]	5000 to 10000	
CN1OC2(CC3(CCOCC3)Oc3ccc(-c4cccc(C#N)c4)cc32)N=C1N (stereo not shown) [Compound 115]	500 to 1000	
COc1cc(F)cc(-c2ccc3c(c2)[C@]2(C[C@@]4(CCCOC4)O3)N=C(N)N(C)C2=O)c1 [Compound 328]	100 to 500	
CN(C)C(=O)c1ccccc1-c1ccc2c(c1)C1(CC(c3ccccc3)O2)N=C(N)N(C)C1=O (stereo not shown) [Compound 66, 2-(2′-amino-1′-methyl-5′-oxo-2-phenyl-1′,5′-dihydrospiro[chroman-4,4′-imidazole]-6-yl)-N,N-dimethylbenzamide]		10000 to 50000
CN1C(=O)C2(CC(c3ccccc3)Oc3ccc(-c4ccc(CO)cc4)cc32)N=C1N (stereo not shown) [Compound 26, 2′-amino-6-(4-(hydroxymethyl)phenyl)-1′-methyl-2-phenylspiro[chroman-4,4′-imidazol]-5′(1′H)-one]		1000 to 5000
CCN(CC)C(=O)c1ccc(-c2ccc3c(c2)C2(CC(c4ccccc4)O3)N=C(N)N(C)C2=O)cc1 (stereo not shown) [Compound 71, 4-(2′-amino-1′-methyl-5′-oxo-2-phenyl-1′,5′-dihydro-spiro[chroman-4,4′-imidazole]-6-yl)-N,N-diethylbenzamide]		10000 to 50000
CN(C)C(=O)c1ccc(-c2ccc3c(c2)C2(CC(c4ccccc4)O3)N=C(N)N(C)C2=O)cc1 (stereo not shown) [Compound 68, 4-(2′-amino-1′-methyl-5′-oxo-2-phenyl-1′,5′-dihydrospiro[chroman-4,4′-imidazole]-6-yl)-N,N-dimethylbenzamide]		10000 to 50000
CN1O[C@@]2(C[C@@]3(CCOC3)Oc3ccc(-c4cccc(C#N)c4)cc32)N=C1N (relative stereo) [Compound 113a]	500 to 1000	
CN1OC2(CC(C3CCOC(C)(C)C3)Oc3ccc(-c4csc(-n5ccnc5)n4)cc32)N=C1N (stereo not shown) [Compound 370]	500 to 1000	
CN1OC2(CC3(CCCOC3)Oc3ccc(C#CC4CC4)cc32)N=C1N (stereo not shown) [Compound 407, 2″-methyl-6-(cyclopropylethynyl)-2″H-spiro[spiro[chroman-2,1′-(3-oxacyclohexane)]-4,5′-[1,2,4]oxadiazol]-3″-amine]	1000 to 5000	
CCC1CCC2(C1)CC1(N=C(N)N(C)O1)c1cc(-c3cccc(C#N)c3)ccc1O2 (stereo not shown) [Compound 120]	1000 to 5000	
NC1=NC2(CC(c3ccccc3)Oc3ccc(Br)cc32)C(=O)N1CCC1CC1 (stereo not shown) [Compound 59, 2′-amino-6-bromo-1′-(2-cyclopropylethyl)-2-phenylspiro[chroman-4,4′-imidazol]-5′(1′H)-one]	10000 to 50000	
CN1C(=O)C2(CC(c3cccc(Cl)c3)Oc3ccc(Br)cc32)N=C1N (stereo not shown) [Compound 34, 2′-amino-6-bromo-2-(3-chlorophenyl)-1′-methylspiro[chroman-4,4′-imidazol]-5′(1′H)-one]	1000 to 5000	
COc1cccc(-c2ccc3c(c2)C2(CC(c4ccccc4)O3)N=C(N)N(C)C2=O)c1 (stereo not shown) [Compound 13, 2′-amino-6-(3-methoxyphenyl)-1′-methyl-2-phenylspiro[chroman-4,4′-imidazol]-5′(1′H)-one]		100 to 500
CN1C(=O)C2(CC3(CCCc4ccccc4C3)Oc3ccc(Br)cc32)N=C1N (stereo not shown) [Compound 381]	1000 to 5000	
CN1C(=O)C2(CC(c3ccccc3)Oc3ccc(-c4cccc(C#N)c4)cc32)N=C1N (stereo not shown) [Compound 2, 3-(2′-amino-1′-methyl-5′-oxo-2-phenyl-1′,5′-dihydrospiro[chroman-4,4′-imidazole]-6-yl)benzonitrile]	100 to 500	

Continued, in another order:

IC50 [1] [nM]	Structure (SMILES)	IC50 [nM]
100 to 500	CN1OC2(CC(C3CCCOC3)Oc3ccc(-c4cccc(Cl)c4)cc32)N=C1N (stereo not shown) [Compound 87]	
500 to 1000	CC(=O)c1cccc(-c2ccc3c(c2)[C@]2(C[C@]4(CCCOC4)O3)N=C(N)N(C)C2=O)c1 [Compound 358]	
1000 to 5000	CC(C)=CC(CCO)[C@@H]1C[C@@]2(N=C(N)N(C)O2)c2cc(-c3cc(F)cc(F)c3F)ccc2O1 (stereo partly shown) [Compound 392]	
100 to 500	CN1OC2(CC3(CCCOC3)Oc3ccc(-c4cccc(Cl)c4)cc32)N=C1N (stereo not shown) [Compound 110]	
1000 to 5000	CN1OC2(CC3(CCCOC3)Oc3ccc(-c4cccc(C#N)c4)cc32)N=C1N (stereo not shown) [Compound 117]	
500 to 1000	CN1OC2(CC3(CCCCOC3)Oc3ccc(-c4cccc(C#N)c4)cc32)N=C1N (stereo not shown) [Compound 114]	
100 to 500	CCC1CCC2(C1)CC1(N=C(N)N(C)C1=O)c1cc(-c3cccc(C#N)c3)ccc1O2 (stereo not shown) [Compound 73]	
10000 to 50000	CCCCNC(=O)c1cccc(-c2ccc3c(c2)[C@]2(C[C@H](c4ccccc4)O3)N=C(N)N(C)C2=O)c1 [Compound 55a, 3-((2R,4S)-2′-amino-1′-methyl-5′-oxo-2-phenyl-1′,5′-dihydrospiro[chroman-4,4′-imidazole]-6-yl)-N-butylbenzamide]	
100 to 500	CCN1C(=O)C2(CC(c3ccccc3)Oc3ccc(-c4cccc(C#N)c4)cc32)N=C1N (stereo not shown) [Compound 12, 3-(2′-amino-1′-ethyl-5′-oxo-2-phenyl-1′,5′-dihydrospiro[chroman-4,4′-imidazole]-6-yl)benzonitrile]	
1 to 100	CN1C(=O)[C@@]2(C[C@H](c3ccccc3)Oc3ccc(-c4cccc(C#N)c4)cc32)N=C1N (racemic) [Compound 2a, 3-(2′-amino-1′-methyl-5′-oxo-2-phenyl-1′,5′-dihydrospiro[chroman-4,4′-imidazole]-6-yl)benzonitrile]	
10000 to 50000	CN1C(=O)C2(CC(c3ccccc3F)Oc3ccc(Br)cc32)N=C1N (stereo not shown) [Compound 63, 2′-amino-6-bromo-2-(2-fluorophenyl)-1′-methylspiro-[chroman-4,4′-imidazol]-5′(1′H)-one]	
1000 to 5000	COC1CCC2(CC1)CC1(N=C(N)N(C)O1)c1cc(-c3cccc(C#N)c3)ccc1O2 (stereo not shown) [Compound 388]	
5000 to 10000	CN1OC2(CC3(CCS(=O)(=O)CC3)Oc3ccc(-c4cccc(C#N)c4)cc32)N=C1N (stereo not shown) [Compound 438]	
1000 to 5000	CCOC(=O)c1cccc(-c2ccc3c(c2)[C@]2(C[C@@]4(CCCOC4)O3)N=C(N)N(C)C2=O)c1 [Compound 429]	
500 to 1000	CN1O[C@]2(C[C@@H](C[C@H]3CCCO3)Oc3ccc(-c4cccc(C#N)c4)cc32)N=C1N (stereo in doubt) [Compound 360, 3-(3′-amino-2′-methyl-2-((tetrahydrofuran-2-yl)methyl)-2′H-spiro[chroman-4,5′-[1,2,4]oxadiazole]-6-yl)benzonitrile]	
1000 to 5000	CN1OC2(C[C@@]3(CCCC4CCCCC43)Oc3ccc(-c4cccc(C#N)c4)cc32)N=C1N (stereo partly shown) [Compound 416]	
100 to 500	CN1C(=O)C2(CC(C3CCOC(C)(C)C3)Oc3ccc(-c4cc(F)ccc4F)cc32)N=C1N (stereo not shown) [Compound 300]	
1000 to 5000	CN1OC2(CC(C3CCOC(C)(C)C3)Oc3ccc(-c4cccc(-n5ccnc5)n4)cc32)N=C1N (stereo not shown) [Compound 400]	
1000 to 5000	CN1OC2(C[C@H]([C@@H]3CCOC(C)(C)C3)Oc3ccc(-c4cc(F)ccc4F)cc32)N=C1N (stereo partly shown) [Compound 384]	
1000 to 5000	CC(C)=CC(CCO)C1CC2(N=C(N)N(C)O2)c2cc(-c3cc(F)cc(C#N)c3)ccc2O1 (stereo not shown) [Compound 377]	
500 to 1000	CN1C(=O)C2(CC(c3ccccc3)Oc3ccc(-c4cc(N)cc(C#N)c4)cc32)N=C1N (stereo not shown) [Compound 17, 3-amino-5-(2′-amino-1′-methyl-5′-oxo-2-phenyl-1′,5′-dihydrospiro[chroman-4,4′-imidazole]-6-yl)benzonitrile]	
100 to 500	CN1C(=O)[C@@]2(C[C@@]3(CCCOC3)Oc3ccc(-c4cccc(Cl)c4)cc32)N=C1N [Compound 289]	
500 to 1000	CN1OC2(CC(C3CCOC3)Oc3ccc(-c4cccc(C#N)c4)cc32)N=C1N (stereo not shown) [Compound 94]	
5000 to 10000	CC(C)=CC(CCO)[C@@H]1C[C@@]2(N=C(N)N(C)O2)c2cc(-c3cc(F)cc(F)c3)ccc2O1 (stereo partly shown) [Compound 444]	
10000 to 50000	CCN1C(=O)C2(CC(c3ccccc3)Oc3ccc(Br)cc32)N=C1N (stereo not shown) [Compound 69, 2′-amino-6-bromo-1′-ethyl-2-phenylspiro[chroman-4,4′-imidazol]-5′(1′H)-one]	
